Data as given in PubChem BioAssay AID248 (DTP/NCI, 2004).
“And” between values parts separate entries of the source, which are not always exact repeats. Equal values may be shown once. Inconclusive results and toxic doses are left out.

Test system: L1210 leukemia ip in BDF1 mice, survival T/C
Experiment: NCI In Vivo Anticancer Drug Screen. Data for tumor model L1210 Leukemia (intraperitoneal) in B6D2F1 (BDF1) mice
Conditions: endpoint: mean survival time, higher = longer survival
In short: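 In this screen, tumor-bearing mice given compound are compared to those given vehicle, and their survival values are reported as a treated-to-control quotient.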

[1] = dose: 100.0 mg/kg/injection, schedule: Q01DX009 (ip), vehicle: saline
[2] = dose: 400.0 mg/kg/injection, schedule: Q04DX003 (ip), vehicle: Klucel (hydroxypropylcellulose) (HPC)
[3] = dose: 400.0 mg/kg/injection, schedule: Q04DX003 (ip), vehicle: saline
[4] = dose: 100.0 mg/kg/injection, schedule: Q01DX009 (ip), vehicle: Klucel (hydroxypropylcellulose) (HPC)
[5] = dose: 200.0 mg/kg/injection, schedule: Q01DX009 (ip), vehicle: Klucel (hydroxypropylcellulose) (HPC)
[6] = dose: 400.0 mg/kg/injection, schedule: Q01DX009 (ip), vehicle: Klucel (hydroxypropylcellulose) (HPC)
[7] = dose: 200.0 mg/kg/injection, schedule: Q01DX009 (ip), vehicle: saline
[8] = dose: 100.0 mg/kg/injection, schedule: Q01DX001 (ip), vehicle: carboxymethylcellulose (CMC)
[9] = dose: 100.0 mg/kg/injection, schedule: Q04DX003 (ip), vehicle: saline
[10] = dose: 200.0 mg/kg/injection, schedule: Q01DX001 (ip), vehicle: carboxymethylcellulose (CMC)
[11] = dose: 400.0 mg/kg/injection, schedule: Q01DX001 (ip), vehicle: carboxymethylcellulose (CMC)
[12] = dose: 25.0 mg/kg/injection, schedule: Q01DX009 (ip), vehicle: saline with Tween-80
[13] = dose: 100.0 mg/kg/injection, schedule: Q01DX009 (ip), vehicle: saline with Tween-80
[14] = dose: 200.0 mg/kg/injection, schedule: Q04DX003 (ip), vehicle: saline

Question: For `O=C(CCBr)NCNC(=O)CCBr`, which T/C (dose: 53.0 mg/kg/injection, schedule: Q04DX003 (ip), vehicle: Klucel (hydroxypropylcellulose) (HPC)) is on record?
Answer: 114 % of control

Question: What about the T/C (dose: 80.0 mg/kg/injection, schedule: Q04DX003 (ip), vehicle: Klucel (hydroxypropylcellulose) (HPC)) of the same compound?
Answer: 109 % of control

Question: What about the T/C [1] of the same compound?
Answer: 86 % of control

Question: And the T/C (dose: 100.0 mg/kg/injection, schedule: Q04DX003 (ip), vehicle: saline with Tween-80)?
Answer: 113 % of control

Question: What about the T/C (dose: 120.0 mg/kg/injection, schedule: Q04DX003 (ip), vehicle: Klucel (hydroxypropylcellulose) (HPC)) of the same compound?
Answer: 116 % of control

Question: And the T/C (dose: 200.0 mg/kg/injection, schedule: Q04DX003 (ip), vehicle: saline with Tween-80)?
Answer: 117 % of control

Question: What about the T/C (dose: 264.0 mg/kg/injection, schedule: Q04DX003 (ip), vehicle: acetone) of the same compound?
Answer: 153 % of control

Question: And the T/C (dose: 266.0 mg/kg/injection, schedule: Q04DX003 (ip), vehicle: Klucel (hydroxypropylcellulose) (HPC))?
Answer: 154 % of control

Question: What about the T/C (dose: 266.0 mg/kg/injection, schedule: Q04DX003 (ip), vehicle: saline) of the same compound?
Answer: 114 % of control

Question: What about the T/C [2] of the same compound?
Answer: 170 % of control

Question: What about the T/C (dose: 400.0 mg/kg/injection, schedule: Q04DX003 (ip), vehicle: acetone) of the same compound?
Answer: 113 % of control

Question: And the T/C (dose: 400.0 mg/kg/injection, schedule: Q04DX003 (ip), vehicle: saline with Tween-80)?
Answer: 151 % of control

Question: What about the T/C [3] of the same compound?
Answer: 120 % of control

Question: Which T/C [4] does the source give for `COC(=O)c1ccc(OC(=O)Nc2ccc(Br)cc2)cc1` here?
Answer: 102 % of control

Question: What about the T/C [5] of the same compound?
Answer: 92 % of control

Question: What about the T/C [6] of the same compound?
Answer: 92 % of control

Question: What does the source list for `NCCNC(=O)c1ccccc1`?
Answer: T/C [1]: 94 % of control; T/C [7]: 100 % of control

Question: Which results are given for `C=C(NC(=O)C(=C)NC(=O)c1csc(C2=NC3c4csc(n4)C4NC(=O)c5csc(n5)C(C(C)(O)C(C)O)NC(=O)C5CSC(=N5)/C(=C/C)NC(=O)C(C(C)O)NC(=O)c5csc(n5)C3(CC2)NC(=O)C(C)NC(=O)C(=C)NC(=O)C(C)NC(=O)C(C(C)CC)NC2C=Cc3c(C(C)O)cc(nc3C2O)C(=O)OC4C)n1)C(N)=O` (stereo not drawn)?
Answer: T/C [8]: 110 % of control; T/C [9]: 113 % of control; T/C (dose: 178.0 mg/kg/injection, schedule: Q01DX001 (ip), vehicle: saline): 117 % of control; T/C [10]: 112 % of control; T/C [11]: 112 % of control

Question: For `CN(C)CCCN=Cc1[nH]c(=S)[nH]c(=O)c1Cc1ccc(Cl)cc1`, which T/C (dose: 100.0 mg/kg/injection, schedule: Q01DX001 (ip), vehicle: saline with Tween-80) is on record?
Answer: 102 % of control

Question: What about the T/C (dose: 200.0 mg/kg/injection, schedule: Q01DX001 (ip), vehicle: saline with Tween-80) of the same compound?
Answer: 111 % of control

Question: What about the T/C (dose: 400.0 mg/kg/injection, schedule: Q01DX001 (ip), vehicle: saline with Tween-80) of the same compound?
Answer: 101 % of control

Question: What does the source list for `C1=C\C2CC2CCCC/1` (stereo not drawn)?
Answer: T/C (dose: 12.5 mg/kg/injection, schedule: Q01DX005 (ip), vehicle: saline with Tween-80): 86 % of control; T/C (dose: 25.0 mg/kg/injection, schedule: Q01DX005 (ip), vehicle: saline with Tween-80): 96 % of control; T/C [12]: 98 % of control; T/C (dose: 50.0 mg/kg/injection, schedule: Q01DX005 (ip), vehicle: saline with Tween-80): 89 % of control; T/C (dose: 50.0 mg/kg/injection, schedule: Q01DX009 (ip), vehicle: saline with Tween-80): 94 % of control; T/C [13]: 102 % of control

Question: With `CCC1(CC)COC(=O)NC1=O` as the compound, how does the T/C (dose: 1.56 mg/kg/injection, schedule: Q01DX009 (ip), vehicle: saline) read?
Answer: 105 % of control

Question: And the T/C (dose: 3.12 mg/kg/injection, schedule: Q01DX009 (ip), vehicle: saline)?
Answer: 116 % of control

Question: What about the T/C (dose: 6.25 mg/kg/injection, schedule: Q01DX009 (ip), vehicle: saline) of the same compound?
Answer: 103 % of control

Question: And the T/C (dose: 6.25 mg/kg/injection, schedule: Q04DX003 (ip), vehicle: saline)?
Answer: 101 % of control

Question: And the T/C (dose: 12.5 mg/kg/injection, schedule: Q01DX009 (ip), vehicle: saline)?
Answer: 103 % of control

Question: And the T/C (dose: 12.5 mg/kg/injection, schedule: Q04DX003 (ip), vehicle: saline)?
Answer: 101 % of control

Question: What about the T/C (dose: 25.0 mg/kg/injection, schedule: Q01DX009 (ip), vehicle: saline) of the same compound?
Answer: 97 % of control

Question: And the T/C (dose: 25.0 mg/kg/injection, schedule: Q04DX003 (ip), vehicle: saline)?
Answer: 87 % of control

Question: Which T/C [13] does the source give for `Cc1ccc(S(=O)(=O)Nc2ccccc2-c2nc3cc(Cl)ccc3c(=O)o2)cc1` here?
Answer: 86 % of control

Question: And the T/C (dose: 200.0 mg/kg/injection, schedule: Q01DX009 (ip), vehicle: saline with Tween-80)?
Answer: 87 % of control

Question: What about the T/C (dose: 400.0 mg/kg/injection, schedule: Q01DX009 (ip), vehicle: saline with Tween-80) of the same compound?
Answer: 89 % of control

Question: With `C=CC(C)CCCC(C)C` (stereo not drawn) as the compound, how does the T/C [9] read?
Answer: 91 % of control

Question: And the T/C [14]?
Answer: 97 % of control

Question: What about the T/C [3] of the same compound?
Answer: 91 % of control

Question: Which results are given for `N/C(=N/N=C/c1ccccn1)N[N+](=O)[O-]`?
Answer: T/C (dose: 12.5 mg/kg/injection, schedule: Q01DX009 (ip), vehicle: saline with Tween-80): 105 % of control; T/C (dose: 12.5 mg/kg/injection, schedule: Q04DX003 (ip), vehicle: saline with Tween-80): 119 % of control; T/C [12]: 101 % of control; T/C (dose: 25.0 mg/kg/injection, schedule: Q04DX003 (ip), vehicle: saline with Tween-80): 105 % of control; T/C (dose: 50.0 mg/kg/injection, schedule: Q04DX003 (ip), vehicle: saline with Tween-80): 114 % of control

Question: `Cc1nc(N)c2c(ncn2C2OC(CO)C(O)C2O)n1` (stereo not drawn) was tested. Which T/C (dose: 100.0 mg/kg/injection, schedule: Q01DX001 (ip), vehicle: saline) did it give?
Answer: 100 % of control

Question: What about the T/C (dose: 200.0 mg/kg/injection, schedule: Q01DX001 (ip), vehicle: saline) of the same compound?
Answer: 108 % of control

Question: What about the T/C (dose: 400.0 mg/kg/injection, schedule: Q01DX001 (ip), vehicle: saline) of the same compound?
Answer: 105 % of control

Question: How did the T/C (dose: 25.0 mg/kg/injection, schedule: Q04DX002 (ip), vehicle: Klucel (hydroxypropylcellulose) (HPC)) turn out when `NC(=Nc1ccccc1)c1ccc(Cl)cc1` was run?
Answer: 93 % of control

Question: And the T/C (dose: 50.0 mg/kg/injection, schedule: Q04DX002 (ip), vehicle: Klucel (hydroxypropylcellulose) (HPC))?
Answer: 97 % of control

Question: What about the T/C (dose: 100.0 mg/kg/injection, schedule: Q04DX002 (ip), vehicle: Klucel (hydroxypropylcellulose) (HPC)) of the same compound?
Answer: 101 % of control and 115 % of control

Question: Which T/C (dose: 100.0 mg/kg/injection, schedule: Q01DX009 (ip), vehicle: other) does the source give for `N#CCCSP(=S)(Oc1ccccc1)Oc1ccccc1` here?
Answer: 100 % of control

Question: What about the T/C (dose: 200.0 mg/kg/injection, schedule: Q01DX009 (ip), vehicle: other) of the same compound?
Answer: 100 % of control

Question: What about the T/C (dose: 400.0 mg/kg/injection, schedule: Q01DX009 (ip), vehicle: other) of the same compound?
Answer: 94 % of control

Question: What does the source list for `O=C1c2cc([N+](=O)[O-])ccc2-c2cc(Cl)c(NC(=O)C(Cl)Cl)cc21`?
Answer: T/C (dose: 50.0 mg/kg/injection, schedule: Q01DX001 (ip), vehicle: carboxymethylcellulose (CMC)): 101 % of control; T/C [8]: 104 % of control; T/C [10]: 101 % of control; T/C [11]: 104 % of control

Question: Which T/C (dose: 100.0 mg/kg/injection, schedule: Q04DX002 (ip), vehicle: saline) does the source give for `CC(F)C(Br)C(=O)O` (stereo not drawn) here?
Answer: 90 % of control

Question: And the T/C (dose: 200.0 mg/kg/injection, schedule: Q04DX002 (ip), vehicle: saline)?
Answer: 90 % of control

Question: How did the T/C (dose: 9.5 mg/kg/injection, schedule: Q01DX001 (ip), vehicle: other) turn out when `COc1cc2c(cc1OC)C13CCN4CC5=CCOC6CC(=O)N2C1C6C5CC43` (stereo not drawn) was run?
Answer: 103 % of control

Question: And the T/C (dose: 19.0 mg/kg/injection, schedule: Q01DX001 (ip), vehicle: other)?
Answer: 103 % of control

Question: What about the T/C (dose: 25.0 mg/kg/injection, schedule: Q01DX015 (ip), vehicle: saline) of the same compound?
Answer: 101 % of control

Question: And the T/C (dose: 38.0 mg/kg/injection, schedule: Q01DX001 (ip), vehicle: other)?
Answer: 97 % of control

Question: And the T/C (dose: 50.0 mg/kg/injection, schedule: Q01DX015 (ip), vehicle: saline)?
Answer: 100 % of control

Question: What about the T/C (dose: 100.0 mg/kg/injection, schedule: Q01DX015 (ip), vehicle: saline) of the same compound?
Answer: 91 % of control

Question: `Cc1c(Cl)ccc2c(=O)c(C(=O)O)c[nH]c12` was tested. Which T/C (dose: 100.0 mg/kg/injection, schedule: Q04DX003 (ip), vehicle: Klucel (hydroxypropylcellulose) (HPC)) did it give?
Answer: 95 % of control

Question: And the T/C (dose: 200.0 mg/kg/injection, schedule: Q04DX003 (ip), vehicle: Klucel (hydroxypropylcellulose) (HPC))?
Answer: 103 % of control

Question: And the T/C [2]?
Answer: 97 % of control

Question: With `COc1cc(/C=N/N=C(\C)c2ccc3ccccc3c2)cc(OC)c1OC` as the compound, how does the T/C [4] read?
Answer: 90 % of control

Question: What about the T/C [5] of the same compound?
Answer: 94 % of control

Question: And the T/C [6]?
Answer: 100 % of control

Question: For `CN(C)C(=O)Nc1ccc(Cl)cc1`, which T/C [1] is on record?
Answer: 91 % of control

Question: And the T/C [9]?
Answer: 93 % of control

Question: And the T/C [7]?
Answer: 100 % of control

Question: And the T/C [14]?
Answer: 98 % of control

Question: What about the T/C [3] of the same compound?
Answer: 101 % of control
